How the values were obtained:
[1] = target: Human recombinant GST-PI3Kγ (Homo sapiens, UniProt P48736); assay: High Throughput PI3K Lipid Kinase Assay (SPA, neomycin-coated beads); format: biochemical
Description: a) High Throughput PI3K Lipid Kinase Assay (Binding Assay):
The efficacy of compounds of the invention in inhibiting the PI3K induced-lipid phosphorylation may be tested in the following binding assay
The assay combines the scintillation proximity assay technology (SPA, Amersham) with the capacity of neomycin (a polycationic antibiotic) to bind phospholipids with high affinity and specificity. The Scintillation Proximity Assay is based on the properties of weakly emitting isotopes (such as ^3H, ^125I, ^33P). Coating SPA beads with neomycin allows the detection of phosphorylated lipid substrates after incubation with recombinant PI3K and radioactive ATP in the same well, by capturing the radioactive phospholipids to the SPA beads through their specific binding to neomycin.
To a 384 wells MTP containing 5 μl of the test compound of Formula (I) (solubilized in 6% DMSO; to yield a concentration of 100, 30, 10, 3, 1, 0.3, 0.1, 0.03, 0.01, 01 μM of the test compound), the following assay components are added. 1) 5 μl (58 ng) of Human recombinant GST-PI3Kγ (in Hepes 40 mM, pH 7.4, DTT 1 mM and ethylenglycol 5%) 2) 10 μl of lipid micelles and 3) 10 μl of Kinase buffer ([^33P]γ-ATP 45 μM/60 nCi, MgCl2 30 mM, DTT 1 mM, β-Glycerophosphate 1 mM, Na3VO4 100 μM, Na Cholate 0.3%, in Hepes 40 mM, pH 7.4). After incubation at room temperature for 180 minutes, with gentle agitation, the reaction is stopped by addition of 60 μl of a solution containing 100 μg of neomycin-coated PVT SPA beads in PBS containing ATP 10 mM and EDTA 5 mM. The assay is further incubated at room temperature for 60 minutes with gentle agitation to allow binding of phospholipids to neomycin-SPA beads. After precipitation of the neomycin-coated PVT SPA beads for 5 minutes at 1500×g, radioactive PtdIns(3)P is quantified by scintillation counting in a Wallac MicroBeta™ plate counter.
The values indicated in Table I below refer to the IC50 (nM) with respect to PI3Kγ, i.e. the amount necessary to achieve 50% inhibition of said target. Said values show a considerable inhibitory potency of thiazole compounds with regard to PI3Kγ.

[2] = tested on: Akt/PKB phosphorylation; assay: Cell based ELISA to monitor PI3K inhibition: Akt/PKB phosphorylation in Raw 264-7 macrophages after Complement 5a stimulation; settings: Mus musculus, RAW264.7, phospho Serine 473 Akt, read-out: Cell Assay (P-Akt, Elisa) IC50
Procedure: b) Cell Based ELISA to Monitor PI3K Inhibition:
The efficacy of compounds of the invention in inhibiting the PI3K induced Akt/PKB phosphorylation may be tested in the following cell based assay.
Measurement of Akt/PKB phosphorylation in macrophages after stimulation with Complement 5a: Raw 264: Raw 264-7 macrophages (cultured in DMEM-F12 medium containing 10% Fetal Calf serum and antibiotics) are plated at 20'000 cells/well in a 96 MTP 24 h before cell stimulation. Prior to the stimulation with […] of Complement 5a during 5 minutes, Cells are serum starved for 2 h, and pretreated with inhibitors for 20 minutes. After stimulation cells are fixed in 4% formaldehyde for 20 minutes and washed 3 times in PBS containing 1% Triton X-100 (PBS/Triton). […] Next, phosphorylated Akt/PKB is detected by an overnight incubation at 4° C. with primary antibody (anti phospho Serine 473 Akt IHC, Cell Signaling) diluted 800-fold in PBS/Triton, containing 5% bovine serum albumin (BSA). After 3 washes in PBS/Triton, cells are incubated for 60 minutes with a peroxidase conjugated goat-anti-rabbit secondary antibody (1/400 dilution in PBS/Triton, containing 5% BSA), washed 3 times in PBS/Triton, and 2 times in PBS and further incubated in 100 μl of luminescent substrate reagent solution (Pierce) for 2 minutes, followed by the reading (1 s/well). […]

[3] = tested on: Neutrophils recruitment; assay: Thioglycollate-induced peritoneal cavity cell recruitment model; format: in vivo; settings: at 10 mg/kg after 4 hours, oral, female C3H mice, thioglycollate i.p.
Procedure: Thioglycollate-induced Peritoneal Cavity Cell Recruitment Model
The in vivo efficacy of compounds of the invention in inhibiting the migration of leukocytes upon intraperitoneal challenge of thioglycollate may be tested with the following assay.
8-10 weeks old female C3H mice are fasted during 18 hours. 15 minutes prior the intraperitoneal injection of thioglycollate (1.5%, 40 ml/kg), the mice are treated orally with Thiazoles of Formula (I). Control mice receive CMC/Tween as vehicle (10 ml/kg). The mice are then sacrificed by CO2 inhalation and the peritoneal cavity is washed two times with 5 ml of ice-cold PBS/1 mM EDTA. The ravages are done 4 hours or 48 hours after thioglycollate challenge to evaluate neutrophils or macrophages recruitment, respectively. The white blood cells (neutrophils, lymphocytes or macrophages) are counted using a Beckman Coulter® A°T 5diff™.
Dexamethasone is used as reference drug.

Human recombinant GST-PI3Kγ, sequence (P48736 whole entry): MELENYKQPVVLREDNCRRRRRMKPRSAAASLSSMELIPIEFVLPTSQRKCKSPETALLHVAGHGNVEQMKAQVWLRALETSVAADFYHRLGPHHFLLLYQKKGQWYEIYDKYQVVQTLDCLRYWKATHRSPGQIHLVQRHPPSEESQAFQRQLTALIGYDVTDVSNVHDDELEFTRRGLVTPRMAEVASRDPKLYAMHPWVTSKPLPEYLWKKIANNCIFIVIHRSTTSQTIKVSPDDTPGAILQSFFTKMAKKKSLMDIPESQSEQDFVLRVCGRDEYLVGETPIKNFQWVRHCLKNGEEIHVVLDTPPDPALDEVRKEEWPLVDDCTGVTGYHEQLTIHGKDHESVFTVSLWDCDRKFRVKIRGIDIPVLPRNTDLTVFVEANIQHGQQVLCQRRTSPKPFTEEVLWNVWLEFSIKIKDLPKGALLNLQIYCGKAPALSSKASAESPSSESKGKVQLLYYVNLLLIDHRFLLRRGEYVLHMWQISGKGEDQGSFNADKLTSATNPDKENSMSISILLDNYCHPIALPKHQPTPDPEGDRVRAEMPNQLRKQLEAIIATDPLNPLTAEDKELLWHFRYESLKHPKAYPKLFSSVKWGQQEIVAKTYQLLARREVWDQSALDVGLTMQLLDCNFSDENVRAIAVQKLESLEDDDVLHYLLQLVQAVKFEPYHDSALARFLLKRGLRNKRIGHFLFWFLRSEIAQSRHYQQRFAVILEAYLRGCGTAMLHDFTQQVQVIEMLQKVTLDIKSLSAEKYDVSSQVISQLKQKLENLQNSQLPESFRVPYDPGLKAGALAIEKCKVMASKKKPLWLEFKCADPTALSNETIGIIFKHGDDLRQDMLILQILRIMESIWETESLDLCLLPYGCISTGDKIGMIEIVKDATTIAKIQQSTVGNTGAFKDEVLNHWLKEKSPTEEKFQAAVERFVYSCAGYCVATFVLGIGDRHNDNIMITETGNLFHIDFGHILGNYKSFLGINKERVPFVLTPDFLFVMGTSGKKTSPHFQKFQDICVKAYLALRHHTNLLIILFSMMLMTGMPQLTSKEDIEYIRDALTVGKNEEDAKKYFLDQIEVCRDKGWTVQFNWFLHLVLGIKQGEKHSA

IC50 [1] | IC50 [2] | Structure (SMILES) | % of inhibition of Neutrophils recruitment [3]
215 nM |  | CC(=O)Nc1nc(C)c(-c2ccc(C=O)s2)s1 [Example 1, N-[5-(5-formyl-2-thienyl)-4-methyl-1,3-thiazol-2-yl]acetamide] | 
219 nM |  | CC(=O)Nc1nc(C)c(-c2ccc(CO)s2)s1 [Example 3, N-[5-[5-(hydroxymethyl)-2-thienyl]-4-methyl-1,3-thiazol-2-yl]acetamide] | 
249 nM |  | CC(=O)Nc1nc(C)c(-c2ccc(C(=O)N3CCOCC3)s2)s1 [Example 5] | 
1100 nM |  | CC(=O)Nc1nc(C)c(-c2ccc(C(=O)N3CCCC(O)C3)s2)s1 (stereo not drawn) [Example 8, N-(5-{5-[(3-hydroxypiperidin-1-yl)carbonyl]-2-thienyl}-4-methyl-1,3-thiazol-2-yl)acetamide] | 
 | 322 nM | C=CCNS(=O)(=O)c1ccc(-c2sc(NC(C)=O)nc2C)s1 [Example 12, N-(5-[5-{(allylamino)sulfonyl]-2-thienyl}-4-methyl-1,3-thiazol-2-yl) acetamide] | 38%

Source: US7888379B2, “Thiazole derivatives and use thereof” (Merck Serono SA, priority 2005, dated 2011)
